Holding throughout (type): cell-based
One data set relates to 3T3 cells. In words: Survival of 3T3 cells (model of mammalian cells) after photodynamic treatment. The following applies: red light 650-750 nm, 50 mW/cm^2, PBS +5% DMSO, 5 min pre-incubation. How it is done:
(§1) The irradiation is carried out with red light (650-750 nm), 50 mW/cm^2.

Data set [1] concerns Staphylococcus aureus (ATCC 6538P, MRSA; Gram-positive). In words: Photoinactivation of S. aureus (MRSA), survival after photodynamic treatment. The settings on record: red light 650-750 nm, 50 mW/cm^2, PBS +5% DMSO, 5 min pre-incubation.
Source text: (§2) The compounds synthesized have been assayed for their antifungal and antibacterial (Gram-positive e Gram-negative) activity. For the experiments the following micro-organisms were used: Candida albicans (ATCC10231; yeast), Staphylococcus aureus (ATCC 6538P, MRSA; Gram-positive), Escherichia coli (04; Gram-negative). All the micro-organisms were used in the experiments in a stationary state of growth. An example of experimental protocol used to assess the photoinactivation of micro-organisms is described as follows.
(§3) Cells in a stationary state of growth have been washed in physiological buffered saline solution (PBS) and diluted in order to obtain a cell suspension in the range 10^6÷10^9 cells/ml in PBS or appropriate medium.
(§4) Cell suspensions have then been treated with scalar aliquots of the photosensitising agent to be tested in the range 30÷0.01 μM, eventually as a photosensitizer conjugate. […] In order to determine the percentage of cell population after photoinactivation for each photosensitizer concentration, serially diluted samples resulting from the irradiation have been plated on Sabouraud Dextrose Agar (C. Albicans), on Tryptic Soy Agar (S. aureus), or on other suitable culture media and the data were compared with dark controls.
as §1

Data set [2] concerns Escherichia coli (04; Gram-negative). In words: Photoinactivation of E. coli, survival after photodynamic treatment. The settings on record: red light 650-750 nm, 50 mW/cm^2, PBS +5% DMSO, 5 min pre-incubation.
Source text: as §2, §3, §4, §1

For data set [3], the system named is Candida albicans (ATCC10231; yeast). In words: Photoinactivation of C. albicans, survival after photodynamic treatment. The settings on record: 1 μM, red light 650-750 nm, 50 mW/cm^2, PBS +5% DMSO, 10 min pre-incubation.
Source text: as §2, §3, §4, §1

The next data set has as its system erythrocytes. In words: Haemolytic properties, dark and light treatment. The following applies: for % Haemolysis (Light treatment) 30 J/cm^2 (50 mW/cm^2 × 10 min): light 30 J/cm^2 (50 mW/cm^2 × 10 min).

As for “2[1,3-bis-(trimethylammonium)2-propyloxy]zinc(II) phtalocyanine diiodide [Compound 18]”, the “Survival (%)” value in the data set with 3T3 cells (1 μM, irradiation 1 min) was 100%; in the data set with 3T3 cells (1 μM, irradiation 5 min), 97%; in the data set with 3T3 cells (10 μM, irradiation 1 min), 100%; with 3T3 cells (10 μM, irradiation 5 min), 94%; in data set [1] (1 μM, irradiation 1 min), 0.0002%; in data set [1] (1 μM, irradiation 5 min), 0.0001%. For the same molecule, the “Survival (%)” value amounted to 0.0001% in data set [1] (10 μM, irradiation 1 min); 0.0001% in data set [1] (10 μM, irradiation 5 min); 100% in data set [2] (1 μM, irradiation 1 min); 100% in data set [2] (1 μM, irradiation 5 min); 100% in data set [2] (10 μM, irradiation 1 min); 2.34% in data set [2] (10 μM, irradiation 5 min). Moreover, the “Survival (%)” value in data set [3] (irradiation 1 min) and in data set [3] (irradiation 5 min) was 0.0001% throughout.

As for `CN1CCC(Oc2ccc3c4[n]5c(c3c2)=NC2=NC(=Nc3c6ccccc6c([n]3[Zn]5)N=C3N=C(N=4)c4ccccc43)c3ccccc32)CC1` [Compound 4], the “% Haemolysis (Dark treatment)” value in the data set with erythrocytes (concentration 0.5 μM) was 4.7%; with erythrocytes (concentration 1 μM) it was 1.5%; with erythrocytes (concentration 5 μM), 1.5%. Moreover, the “% Haemolysis (Light treatment) 30 J/cm^2 (50 mW/cm^2 × 10 min)” value in the data set on erythrocytes (concentration 0.5 μM) is on record as 0.9%; in the data set with erythrocytes (concentration 1 μM), 1.2%; in the data set with erythrocytes (concentration 5 μM), 1.5%.

The values above are taken from US7144879B2, “Substituted metal-phthalocyanines, their preparation and the use thereof” (L. Molteni & C. Dei Fratelli, priority 2000, dated 2006).
